According to paper PMC7849821, “The deubiquitylase USP9X controls ribosomal stalling” (The Journal of Cell Biology, 2021):
pIC50: −log10 of the molar value.

Assays:
[1] = test system: HEK293 Flp-In T-Rex GFP-P2A-(KAAA)21-P2A-RFP WT cells; assay: Fluorescent ribosomal stalling reporter, FACS RFP:GFP ratio; assay type: cell-based; settings: 10 µM for 72 h
Source text: The HEK293 cells used in this study (HEK293-Flp-In TREX GFP-P2A-[K^AAA]21 -P2A-RFP) have been engineered to express a reporter system for terminal ribosomal stalling ([Juszkiewicz and Hegde, 2017]). The reporter cassette contains GFP (N-terminal) and RFP (C-terminal) separated by a FLAG-tagged stalling reporter (SR) incorporating a polyA stretch of twenty-one codons (K^AAA)21 (Fig. 5 B). This is flanked by viral P2A sequences, at which ribosomes skip formation of a peptide bond, without interrupting translation elongation. Consequently, unimpaired translation generates 3 proteins (GFP, FLAG-SR, RFP) in equal amounts. Stalling at the FLAG-SR aborts translation before RFP synthesis, leading to a substoichiometric RFP:GFP ratio. Failure to effectively respond to stalled ribosomes allows eventual read-through and a consequent rise in the RFP:GFP ratio that can be assessed by fluorescence-activated cell sorting (Fig. 5 B, schematic diagram; [Juszkiewicz and Hegde, 2017]). […] We also analyzed three of the cell populations treated with individual gRNAs as represented in Fig. 5 A that show varying effectiveness for USP9X depletion. […] We propose that USP9X inhibition may promote read-through by a combined effect on each of these RING E3 ligases linked to the ribosomal quality control pathway. […]

HCT116 cells = assay: SILAC-based proteome analysis of FT709-treated HCT116 cells; assay type: cell-based; settings: 10 µM, 24 h
Description: HCT116 cells were grown in SILAC DMEM supplemented with 10% dialyzed FBS (Dundee Cell Products) at 37°C and 5% CO2. To generate light, medium, and heavy stable isotope-labeled cells, arginine- and lysine-free DMEM medium was supplemented with 200 mg/liter L-proline and either L-lysine (Lys0) together with L-arginine (Arg0; light), L-lysine-^2H4 (Lys4) with L-arginine-U-^13C6 (Arg6; medium), or L-lysine-U-^13C6-^15N2 (Lys8) with L-arginine-U-^13C6-^15N4 (Arg10; heavy) at final concentrations of 84 mg/liter for the arginine and 146 mg/liter for the lysine until fully metabolically labeled. […] Relative protein concentrations of the lysates were determined using a bicinchoninic acid assay (Thermo Fisher Scientific), and light-, medium-, and heavy-labeled lysates were combined in a 1:1:1 ratio.
Protein extracts (1.2–1.5 mg) containing SDS were reduced with 5 mM dithiothreitol, alkylated with 20 mM iodoacetamide, and then subjected to methanol/chloroform extraction. […] Peptide fractions were analyzed in technical replicates by nano-UPLC-MS/MS using a Dionex Ultimate 3000 nano UPLC with EASY spray column (75 µm × 500 mm, 2 µm particle size; Thermo Fisher Scientific) with a 60-min gradient of 2% acetonitrile/0.1% formic acid/5% DMSO to 35% acetonitrile/0.1% formic acid/5% DMSO at a flow rate of ∼250 nl/min. […]

CEP55 = assay: MSD ELISA assay for CEP55 reduction in BxPC3 cells; assay type: cell-based; settings: Homo sapiens, BXPC-3, BxPC3 pancreatic cancer cells, 6 h exposure, read-out: IC50 for modulation (reduction) of CEP55 expression
Description: BxPC3 cells were seeded in 96-well plates and exposed to FT709 (20 µM top concentration, 1:2 serial dilutions) for 6 h. Cell lysates were prepared in RIPA buffer and stored at −80°C until analysis. Samples were analyzed by an MSD ELISA assay (Pacific Biolabs) using a CEP55 antibody (Novux; 1:500 dilution in PBS) captured overnight at 4°C, 30 µl lysates per well, 30 µl of CEP55 antibody (CST; 81693) diluted 1:2,000 in 1% blocker A/PBS and 30 µl per well of a 1:4,000 diluted goat anti-rabbit sulfo-tag, 1% blocker A/PBS. Plates were read on a MSD Sector Imager 2400. Results were transformed as percentage DMSO controls and curves fitted using a nonlinear regression to determine the IC50. Results presented are based on duplicate values.

USP18 = USP18 (Homo sapiens, UniProt Q9UMW8); assay: DUB biochemical assay (Ub-rhodamine cleavage); settings: Ub-rhodamine substrate, DUB panel Fig. S2 A
Description: (§1) The assay was performed in a final volume of 6 µl in assay buffer containing 20 mM Tris buffer, pH 8, 0.03% bovine γ-globulin, 0.01% Triton X-100, and 1 mM glutathione. Nanoliter quantities of 10-point, threefold serial dilutions in DMSO were predispensed into 1,536 assay plates for a final top concentration between […] and subsequent half-log dilutions. 2× DUB (0.025 nM final concentration) was added and preincubated for 30 min at room temperature. 2× ubiquitin (Ub)-rhodamine (25 nM final concentration) was added to initiate the reaction. Fluorescence readings (excitation: 485 nm, emission: 535 nm) were acquired over 12 min (Envision reader). The slope of the data from each point was used to determine IC50.
(§2) For all assays, data were reported as percent inhibition compared with control wells. IC50 values were determined by curve fitting of the standard four-parameter logistic fitting algorithm included in the Activity Base software package IDBS XE Designer Model205. Data were fitted using the Levenburg–Marquardt algorithm.

USP13 = USP13 (Homo sapiens, UniProt Q92995); assay: DUB biochemical assay (Ub-rhodamine cleavage); settings: Ub-rhodamine substrate, DUB panel Fig. S2 A
Description: as §1, §2

USP24 = USP24 (Homo sapiens, UniProt Q9UPU5); assay: DUB biochemical assay (Ub-rhodamine cleavage); settings: Ub-rhodamine substrate, DUB panel Fig. S2 A
Description: as §1, §2

USP37 = USP37 (Homo sapiens, UniProt Q86T82); assay: DUB biochemical assay (Ub-rhodamine cleavage); settings: Ub-rhodamine substrate, DUB panel Fig. S2 A
Description: as §1, §2

USP25 = USP25 (Homo sapiens, UniProt Q9UHP3); assay: DUB biochemical assay (Ub-rhodamine cleavage); settings: Ub-rhodamine substrate, DUB panel Fig. S2 A
Description: as §1, §2

USP12 = USP12 (Homo sapiens, UniProt O75317); assay: DUB biochemical assay (Ub-rhodamine cleavage); settings: Ub-rhodamine substrate, DUB panel Fig. S2 A
Description: as §1, §2

USP4 = USP4 (Homo sapiens, UniProt Q13107); assay: DUB biochemical assay (Ub-rhodamine cleavage); settings: Ub-rhodamine substrate, DUB panel Fig. S2 A
Description: as §1, §2

USP36 = USP36 (Homo sapiens, UniProt Q9P275); assay: DUB biochemical assay (Ub-rhodamine cleavage); settings: Ub-rhodamine substrate, DUB panel Fig. S2 A
Description: as §1, §2

USP7 = USP7 (Homo sapiens, UniProt Q93009); assay: DUB biochemical assay (Ub-rhodamine cleavage); settings: Ub-rhodamine substrate, DUB panel Fig. S2 A
Description: as §1, §2

USP10 = USP10 (Homo sapiens, UniProt Q14694); assay: DUB biochemical assay (Ub-rhodamine cleavage); settings: Ub-rhodamine substrate, DUB panel Fig. S2 A
Description: as §1, §2

USP8 = USP8 (Homo sapiens, UniProt P40818); assay: DUB biochemical assay (Ub-rhodamine cleavage); settings: Ub-rhodamine substrate, DUB panel Fig. S2 A
Description: as §1, §2

USP15 = USP15 (Homo sapiens, UniProt Q9Y4E8); assay: DUB biochemical assay (Ub-rhodamine cleavage); settings: Ub-rhodamine substrate, DUB panel Fig. S2 A
Description: as §1, §2

USP22 = USP22 (Homo sapiens, UniProt Q9UPT9); assay: DUB biochemical assay (Ub-rhodamine cleavage); settings: Ub-rhodamine substrate, DUB panel Fig. S2 A
Description: as §1, §2

USP11 = USP11 (Homo sapiens, UniProt P51784); assay: DUB biochemical assay (Ub-rhodamine cleavage); settings: Ub-rhodamine substrate, DUB panel Fig. S2 A
Description: as §1, §2

USP1 = USP1 (Homo sapiens, UniProt O94782); assay: DUB biochemical assay (Ub-rhodamine cleavage); settings: Ub-rhodamine substrate, DUB panel Fig. S2 A
Description: as §1, §2

USP33 = USP33 (Homo sapiens, UniProt Q8TEY7); assay: DUB biochemical assay (Ub-rhodamine cleavage); settings: Ub-rhodamine substrate, DUB panel Fig. S2 A
Description: as §1, §2

USP47 = USP47 (Homo sapiens, UniProt Q96K76); assay: DUB biochemical assay (Ub-rhodamine cleavage); settings: Ub-rhodamine substrate, DUB panel Fig. S2 A
Description: as §1, §2

USP2 = USP2 (Homo sapiens, UniProt O75604); assay: DUB biochemical assay (Ub-rhodamine cleavage); settings: Ub-rhodamine substrate, DUB panel Fig. S2 A
Description: as §1, §2

USP5 = USP5 (Homo sapiens, UniProt P45974); assay: DUB biochemical assay (Ub-rhodamine cleavage); settings: Ub-rhodamine substrate, DUB panel Fig. S2 A
Description: as §1, §2

USP28 = USP28 (Homo sapiens, UniProt Q96RU2); assay: DUB biochemical assay (Ub-rhodamine cleavage); settings: Ub-rhodamine substrate, DUB panel Fig. S2 A
Description: as §1, §2

ZNF598 = assay: Immunoblot of ZNF598 in FT709-treated HCT116 cells; assay type: cell-based; settings: 10 µM, 4 or 24 h
Description: (§3) Cultured cells were lysed for 10 min at 4°C in RIPA buffer (10 mM Tris-HCl, pH 7.5, 150 mM NaCl, 1% Triton X-100, 0.1% SDS, and 1% sodium deoxycholate) supplemented with mammalian protease inhibitor cocktail (Sigma-Aldrich). Proteins were resolved using SDS-PAGE (Invitrogen NuPage gel 4–12%), transferred to nitrocellulose membrane, blocked in 5% fat-free milk or 5% bovine serum albumin in TBS supplemented with Tween-20, and probed with primary antibodies overnight. Visualization and quantification of Western blots were performed using IRdye 800CW and 680LT coupled secondary antibodies and an Odyssey infrared scanner (LI-COR Biosciences).

ZNF598 and MKRN2 = assay: Immunoblot of FT709 responsive markers in A549 and U2OS cells; assay type: cell-based; settings: 10 µM
Description: as §3

ZNF598, MKRN1 and MKRN2 = assay: Immunoblot of ZNF598 and Makorins in FT709-treated (KAAA)21 WT cells; assay type: cell-based; settings: (KAAA)21 WT HEK293 cells, indicated concentrations for 48 h
Description: as §3

USP13, sequence (Q92995 whole entry, species assumed): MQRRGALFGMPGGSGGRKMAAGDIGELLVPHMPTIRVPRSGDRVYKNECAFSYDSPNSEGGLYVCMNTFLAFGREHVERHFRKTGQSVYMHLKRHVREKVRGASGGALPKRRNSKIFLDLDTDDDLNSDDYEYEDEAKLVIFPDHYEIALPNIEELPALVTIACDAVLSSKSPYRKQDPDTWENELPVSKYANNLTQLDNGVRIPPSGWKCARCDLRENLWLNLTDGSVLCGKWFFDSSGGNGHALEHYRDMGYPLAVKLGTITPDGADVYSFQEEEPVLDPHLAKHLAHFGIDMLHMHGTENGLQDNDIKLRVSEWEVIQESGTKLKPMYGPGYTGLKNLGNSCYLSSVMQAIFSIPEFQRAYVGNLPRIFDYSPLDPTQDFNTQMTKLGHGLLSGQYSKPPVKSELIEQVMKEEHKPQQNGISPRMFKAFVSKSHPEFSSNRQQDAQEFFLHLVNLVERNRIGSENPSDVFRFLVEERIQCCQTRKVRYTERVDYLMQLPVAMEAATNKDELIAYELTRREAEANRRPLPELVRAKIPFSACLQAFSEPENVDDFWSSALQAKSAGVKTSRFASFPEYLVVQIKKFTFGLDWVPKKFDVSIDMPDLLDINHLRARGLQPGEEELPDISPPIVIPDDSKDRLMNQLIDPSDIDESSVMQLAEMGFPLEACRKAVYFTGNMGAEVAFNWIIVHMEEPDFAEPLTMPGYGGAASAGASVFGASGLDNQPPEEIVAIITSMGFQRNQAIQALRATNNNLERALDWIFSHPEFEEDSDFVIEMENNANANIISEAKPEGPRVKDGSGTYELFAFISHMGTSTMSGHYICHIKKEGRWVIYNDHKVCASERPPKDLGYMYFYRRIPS
USP10, sequence (Q14694 whole entry): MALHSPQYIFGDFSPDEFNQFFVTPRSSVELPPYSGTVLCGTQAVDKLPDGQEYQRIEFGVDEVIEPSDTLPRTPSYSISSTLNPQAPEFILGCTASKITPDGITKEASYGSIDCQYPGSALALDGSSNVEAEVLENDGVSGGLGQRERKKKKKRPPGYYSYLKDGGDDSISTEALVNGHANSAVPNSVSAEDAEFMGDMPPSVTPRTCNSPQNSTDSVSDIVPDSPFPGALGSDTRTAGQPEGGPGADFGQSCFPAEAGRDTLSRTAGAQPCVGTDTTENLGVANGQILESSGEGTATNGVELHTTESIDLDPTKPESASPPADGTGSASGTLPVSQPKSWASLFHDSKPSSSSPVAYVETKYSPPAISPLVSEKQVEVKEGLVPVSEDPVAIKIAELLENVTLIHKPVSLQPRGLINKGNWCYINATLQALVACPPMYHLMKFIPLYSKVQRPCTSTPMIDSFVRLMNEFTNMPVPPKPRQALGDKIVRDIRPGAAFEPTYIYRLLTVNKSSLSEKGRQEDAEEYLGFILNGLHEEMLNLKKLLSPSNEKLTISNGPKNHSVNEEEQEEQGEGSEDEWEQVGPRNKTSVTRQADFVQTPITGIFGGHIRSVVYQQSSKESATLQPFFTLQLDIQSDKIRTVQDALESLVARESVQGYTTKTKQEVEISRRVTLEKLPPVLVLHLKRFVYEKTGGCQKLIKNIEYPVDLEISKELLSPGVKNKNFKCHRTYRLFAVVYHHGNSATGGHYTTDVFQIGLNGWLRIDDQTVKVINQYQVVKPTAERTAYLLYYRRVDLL
USP8, sequence (P40818 whole entry, species assumed): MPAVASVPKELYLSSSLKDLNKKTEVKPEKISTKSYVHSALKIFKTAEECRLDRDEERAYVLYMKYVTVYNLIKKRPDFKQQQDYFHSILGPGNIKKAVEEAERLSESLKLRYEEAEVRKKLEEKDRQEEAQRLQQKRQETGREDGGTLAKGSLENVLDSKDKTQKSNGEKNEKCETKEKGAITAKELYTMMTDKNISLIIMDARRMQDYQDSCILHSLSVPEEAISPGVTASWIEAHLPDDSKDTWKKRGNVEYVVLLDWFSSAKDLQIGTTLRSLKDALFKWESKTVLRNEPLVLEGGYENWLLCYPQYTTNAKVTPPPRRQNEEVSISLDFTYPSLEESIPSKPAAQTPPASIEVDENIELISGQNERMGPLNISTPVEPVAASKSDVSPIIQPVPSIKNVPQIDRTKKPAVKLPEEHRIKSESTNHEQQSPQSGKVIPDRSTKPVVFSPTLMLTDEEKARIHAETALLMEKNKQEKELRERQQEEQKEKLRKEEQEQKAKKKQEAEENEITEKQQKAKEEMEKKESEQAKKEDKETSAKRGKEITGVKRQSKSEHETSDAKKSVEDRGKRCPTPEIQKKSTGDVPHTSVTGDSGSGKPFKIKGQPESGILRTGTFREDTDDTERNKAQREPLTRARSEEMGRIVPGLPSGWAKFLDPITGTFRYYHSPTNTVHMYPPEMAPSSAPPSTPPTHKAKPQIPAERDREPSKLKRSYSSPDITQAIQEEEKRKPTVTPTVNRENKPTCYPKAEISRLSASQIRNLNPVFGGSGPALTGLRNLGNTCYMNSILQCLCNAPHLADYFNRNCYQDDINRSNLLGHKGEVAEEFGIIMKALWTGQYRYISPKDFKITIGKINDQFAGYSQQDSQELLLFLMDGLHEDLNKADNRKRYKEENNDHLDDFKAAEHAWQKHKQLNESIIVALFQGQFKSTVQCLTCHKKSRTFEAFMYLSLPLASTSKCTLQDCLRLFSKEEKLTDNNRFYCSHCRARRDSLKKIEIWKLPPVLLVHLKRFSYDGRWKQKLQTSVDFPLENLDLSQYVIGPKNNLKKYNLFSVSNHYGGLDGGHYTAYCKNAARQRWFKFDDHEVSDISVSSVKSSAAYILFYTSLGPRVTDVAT
USP33, sequence (Q8TEY7 whole entry, species assumed): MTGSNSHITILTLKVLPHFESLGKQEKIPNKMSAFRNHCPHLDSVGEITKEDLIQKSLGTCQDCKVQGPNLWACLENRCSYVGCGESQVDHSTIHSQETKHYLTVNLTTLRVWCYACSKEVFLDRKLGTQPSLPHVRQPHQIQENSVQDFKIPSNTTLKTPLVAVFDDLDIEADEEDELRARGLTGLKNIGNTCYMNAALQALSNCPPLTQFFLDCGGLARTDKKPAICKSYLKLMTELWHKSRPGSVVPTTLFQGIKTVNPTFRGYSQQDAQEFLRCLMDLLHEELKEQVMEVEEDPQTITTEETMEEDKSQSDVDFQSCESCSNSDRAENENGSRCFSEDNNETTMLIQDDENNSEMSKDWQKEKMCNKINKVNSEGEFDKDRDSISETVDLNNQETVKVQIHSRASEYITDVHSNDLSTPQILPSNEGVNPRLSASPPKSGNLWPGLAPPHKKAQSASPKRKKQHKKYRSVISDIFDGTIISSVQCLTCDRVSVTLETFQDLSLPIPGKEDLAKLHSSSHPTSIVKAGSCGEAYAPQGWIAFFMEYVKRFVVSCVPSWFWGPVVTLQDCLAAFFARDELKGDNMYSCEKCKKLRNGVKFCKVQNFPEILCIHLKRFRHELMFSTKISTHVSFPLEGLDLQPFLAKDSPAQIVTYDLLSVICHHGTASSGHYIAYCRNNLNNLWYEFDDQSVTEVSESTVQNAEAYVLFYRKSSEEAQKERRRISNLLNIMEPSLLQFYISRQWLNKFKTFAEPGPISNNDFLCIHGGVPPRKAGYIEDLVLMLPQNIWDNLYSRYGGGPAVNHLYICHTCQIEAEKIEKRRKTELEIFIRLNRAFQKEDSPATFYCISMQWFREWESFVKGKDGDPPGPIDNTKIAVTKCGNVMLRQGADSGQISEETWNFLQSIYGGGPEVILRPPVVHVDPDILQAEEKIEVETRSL
USP5, sequence (P45974 whole entry, species assumed): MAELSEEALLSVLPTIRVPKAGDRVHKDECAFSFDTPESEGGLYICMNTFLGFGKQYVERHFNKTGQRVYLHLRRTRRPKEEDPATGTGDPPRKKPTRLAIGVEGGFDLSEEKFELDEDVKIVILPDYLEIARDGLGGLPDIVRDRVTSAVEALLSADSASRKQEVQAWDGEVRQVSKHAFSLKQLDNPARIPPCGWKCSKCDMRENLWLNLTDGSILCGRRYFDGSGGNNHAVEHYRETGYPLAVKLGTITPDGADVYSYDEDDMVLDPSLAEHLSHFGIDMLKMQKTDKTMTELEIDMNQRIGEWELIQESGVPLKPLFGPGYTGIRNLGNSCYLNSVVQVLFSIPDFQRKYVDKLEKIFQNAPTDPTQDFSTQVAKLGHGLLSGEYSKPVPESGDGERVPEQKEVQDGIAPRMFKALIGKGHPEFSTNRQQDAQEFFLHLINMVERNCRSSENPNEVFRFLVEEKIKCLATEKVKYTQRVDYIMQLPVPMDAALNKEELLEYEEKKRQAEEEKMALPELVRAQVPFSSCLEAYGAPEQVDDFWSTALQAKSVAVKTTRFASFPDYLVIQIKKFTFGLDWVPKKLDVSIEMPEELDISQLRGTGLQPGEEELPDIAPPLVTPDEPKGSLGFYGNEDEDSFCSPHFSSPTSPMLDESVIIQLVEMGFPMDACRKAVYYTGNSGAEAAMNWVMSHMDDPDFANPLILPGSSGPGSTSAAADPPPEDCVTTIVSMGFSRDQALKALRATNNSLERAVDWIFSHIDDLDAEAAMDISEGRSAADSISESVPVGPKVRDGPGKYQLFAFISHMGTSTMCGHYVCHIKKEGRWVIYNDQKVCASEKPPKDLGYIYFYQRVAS
USP18, sequence (Q9UMW8 whole entry, species assumed): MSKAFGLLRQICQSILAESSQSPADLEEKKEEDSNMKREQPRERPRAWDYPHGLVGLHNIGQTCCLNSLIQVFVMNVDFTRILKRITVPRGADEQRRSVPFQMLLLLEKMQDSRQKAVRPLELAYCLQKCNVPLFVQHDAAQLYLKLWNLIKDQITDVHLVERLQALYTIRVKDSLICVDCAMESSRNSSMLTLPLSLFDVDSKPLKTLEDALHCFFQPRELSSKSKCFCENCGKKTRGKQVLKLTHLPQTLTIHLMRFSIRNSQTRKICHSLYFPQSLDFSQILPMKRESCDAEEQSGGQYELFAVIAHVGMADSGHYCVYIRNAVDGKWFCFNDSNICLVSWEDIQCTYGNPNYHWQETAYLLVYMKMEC

Cc1nc2c(C(O)C(=O)N3CC4=C(C3)CN(S(=O)(=O)c3cnc5c(c3)OCCO5)C4)cccc2o1 (centres unmarked) [FT709]
polyA read-through (RFP:GFP ratio) [1]: recapitulate polyA read-through | Protein abundance change in SILAC proteomic datasets (HCT116 cells): de-enrichment of ZNF598 and MKRN2 | pIC50 (CEP55): 6.88 | pIC50 (USP18): < 4.55 | pIC50 (USP13): < 4.57 | pIC50 (USP24): < 4.57 | pIC50 (USP37): < 4.48 | pIC50 (USP25): < 4.57 | pIC50 (USP12): < 4.48 | pIC50 (USP4): < 4.48 | pIC50 (USP36): < 4.57 | pIC50 (USP7): < 4.59 | pIC50 (USP10): < 4.48 | pIC50 (USP8): < 4.60 | pIC50 (USP15): < 4.57 | pIC50 (USP22): < 4.57 | pIC50 (USP11): < 4.48 | pIC50 (USP1): < 4.59 | pIC50 (USP33): < 4.57 | pIC50 (USP47): < 4.48 | pIC50 (USP2): < 4.57 | pIC50 (USP5): < 4.48 | pIC50 (USP28): < 4.57 | ZNF598 protein level (ZNF598): reduction of ZNF598 | FT709-dependent loss of ZNF598 versus MKRN2 (ZNF598 and MKRN2): loss of ZNF598 is minor compared with MKRN2 | ZNF598, MKRN1 and MKRN2 protein levels (ZNF598, MKRN1 and MKRN2): smaller reduction in ZNF598 levels but was again accompanied by parallel reductions in MKRN1 and 2
